# According to patent publication US10392389B2, “Heterocyclic compounds for the inhibition of PASK” (BioEnergenix, LLC, priority 2012, dated 2019):
# Target: T1, PASK (Invitrogen) (Homo sapiens, UniProt Q96RG2)
# T1 construct: IC50 Kinase Domain; purchased Invitrogen
# Experiment: PAS Kinase FRET Assay
# Assay type: biochemical
# Conditions: PAS kinase TR-FRET assay (665 nm/615 nm); read-out: IC50 Kinase Domain
# From the text: Biochemical Assay for hPASK Activity
# The aim of the FRET assay is to determine the inhibition potential of test compounds on targeted kinase. This assay platform provides a homogenous screening method for measuring kinase activity by quantitating the amount of phospho-substrate in solution following a kinase reaction.
# In the presence of kinase and ATP, the Ulight-peptide is phosphorylated and captured by an anti-phospho-substrate antibody, which brings the Eu chelate donor and Ulight acceptor dyes into close proximity. Upon excitation at 340 nm, the Eu chelate transfers its energy to the Ulight dye, resulting in a fluorescent light emission at 665 nm.
# Titration of kinase at 1 mM ATP was achieved via the following protocol. After making serial three-fold dilutions of PASK (Invitrogen) in reaction buffer across the plate; 5 μl of kinase dilution and 5 μl substrate/ATP mix were added to the wells of the white Optiplate-384 (PerkinElmer). The contents of the plate were and incubated at RT for 1 h. The reaction was stopped by adding 5 μl of stop solution to each test well followed by mixing and incubation at RT for 10 minutes. 5 μl of detection mix (detection antibody diluted in detection buffer) was added; the contents of the plate were mixed and then incubated in the dark for 1 hour at RT. The signal was recorded at TR-FRET mode (665 nm/615 nm). The results were graphed to calculate the EC50.
# Titration of ATP at the EC50 concentration of kinase to determine ATP Km,app. was performed using the following method. After making serial dilutions of ATP (Invitrogen), 5 μl of ATP dilution and 5 μl substrate/kinase mix were added to the wells of the white Optiplate-384 (PerkinElmer). The contents of the plate were and incubated at RT for 1 h. The reaction was stopped by adding 5 μl of stop solution to each test well followed by mixing and incubation at RT for 10 minutes. 5 μl of detection mix (detection antibody diluted in detection buffer) was added; the contents of the plate were mixed and then incubated in the dark for 1 hour at RT. The signal was recorded at TR-FRET mode (665 nm/615 nm). The results were graphed to calculate the EC50 as the ATP Km,app.
# Compound screening was done via the following method. 10 mM stock solution of test compound in DMSO was prepared by dissolving test compound in DMSO at RT for 1 hour, and then sonicating at 100% output for 8 minutes. If compound is not soluble under this condition, it was diluted to 3 mM. Kinase reaction buffer was prepared containing 10 mM MgCl2, 50 mM HEPES, 1 mM EGTA, 0.01% TWEEN-20, 2 mM DTT. Serial dilutions of the test compounds were prepared at 4× final assay concentrations using Freedom EVO200® dispensing system as follows: 12×10^−5 M, 4×10^−5 M, 1.33×10^−5 M, 4.44×10^−6 M, 1.48×10^−6 M, 4.92×10^−7 M, 1.65×10^−7 M, […], 1.82×10^−8M, 6.09×10^−9, 2.03×10^−9 M. Test compounds (2.5 μl at 4× the final assay concentration) was added to wells using Freedom EVO200® dispensing system. As a positive control, 2.5 μl of positive compound was added to assay wells, and 2.5 μl of DMSO to assay wells as vehicle control. Kinase solution was prepared in reaction buffer at 2× final assay concentration. Kinase solution (5 μl) was added to each well of the assay plate. The substrate and ATP solution was prepared in kinase reaction buffer at 4× final assay concentration. The kinase reaction was started by adding 2.5 μl of substrate+ATP mix solution to each well of the assay plate. The plate is mixed on a plate shaker; then covered and allowed to react for 2 hours in the dark at 25° C. without shaking. The reaction was stopped by adding 5 μl of stop solution to each test well followed by mixing and incubation at RT for 10 minutes in the dark. 5 μl of detection mix (detection antibody diluted in detection buffer) was added; the contents of the plate were mixed and then incubated in the dark for 1 hour at RT. The signal was recorded at TR-FRET mode (665 nm/615 nm).
# T1 sequence (Q96RG2 999-1251 limits assumed): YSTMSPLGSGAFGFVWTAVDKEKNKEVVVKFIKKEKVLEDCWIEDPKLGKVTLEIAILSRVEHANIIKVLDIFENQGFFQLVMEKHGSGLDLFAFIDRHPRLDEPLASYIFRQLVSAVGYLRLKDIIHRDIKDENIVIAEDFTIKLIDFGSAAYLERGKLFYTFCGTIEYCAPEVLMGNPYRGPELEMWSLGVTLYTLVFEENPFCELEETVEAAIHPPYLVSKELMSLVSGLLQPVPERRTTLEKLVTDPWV
row,Structure (SMILES),IC50 [µM]
1,"Cc1noc(-c2cnn3c(=O)cc(-c4ccc5c(c4)OCCO5)[nH]c23)n1 [Example 97, 5-(2,3-dihydrobenzo[b][1,4]dioxin-6-yl)-3-(3-methyl-1,2,4-oxadiazol-5-yl)pyrazolo[1,5-a]pyrimidin-7(4H)-one]",≤ 10
2,"Cc1noc(-c2c(O)nn3c(=O)cc(-c4ccc(Cl)cc4)[nH]c23)n1 [Example 9, 5-(4-chlorophenyl)-2-hydroxy-3-(3-methyl-1,2,4-oxadiazol-5-yl)-4H,7H-pyrazolo[1,5-a]pyrimidin-7-one]",≤ 10
3,"CCc1cnc(-c2cnn3c(=O)cc(-c4ccc5[nH]nnc5c4)[nH]c23)o1 [Example 6, 5-(1H-1,2,3-benzotriazol-5-yl)-3-(5-ethyl-1,3-oxazol-2-yl)-4H,7H-pyrazolo[1,5-a]pyrimidin-7-one]",≤ 10
4,"CCc1noc2cc(-c3cc(=O)n4ncc(-c5ncco5)c4[nH]3)ccc12 [Example 120, 5-(3-Ethylbenzo[d]isoxazol-6-yl)-3-(oxazol-2-yl)pyrazolo[1,5-a]pyrimidin-7(4H)-one]",≤ 10
5,"COc1cc(-c2cc(=O)n3ncc(-c4cc(C)no4)c3[nH]2)ccc1Cl [Example 52, 5-(4-chloro-3-methoxyphenyl)-3-(3-methylisoxazol-5-yl)pyrazolo[1,5-a]pyrimidin-7(4H)-one]",≤ 10
6,"Cn1ncc2cc(-c3cc(=O)n4ncc(C#N)c4[nH]3)ccc21 [Example 108, 5-(1-methyl-1H-indazol-5-yl)-7-oxo-4H,7H-pyrazolo[1,5-a]pyrimidine-3-carbonitrile]",≤ 10
7,"CCOc1cc(-c2cc(=O)n3ncc(-c4ncco4)c3[nH]2)ccc1Cl [Example 34, 5-(4-chloro-3-ethoxyphenyl)-3-(oxazol-2-yl)-4H,7H-pyrazolo[1,5-a]pyrimidin-7-one]",≤ 10
8,"CCCn1ncc2cc(-c3cc(=O)n4ncc(-c5ncc(C)o5)c4[nH]3)ccc21 [Example 103, 3-(5-methyloxazol-2-yl)-5-(1-propyl-1H-indazol-5-yl)pyrazolo[1,5-a]pyrimidin-7(4H)-one]",≤ 10
9,"Cc1csc(-c2cnn3c(=O)cc(-c4ccc5c(cnn5C)c4)[nH]c23)n1 [Example 72, 5-(1-methyl-1H-indazol-5-yl)-3-(4-methylthiazol-2-yl)pyrazolo[1,5-a]pyrimidin-7(4H)-one]",≤ 10
10,"CCn1ncc2cc(-c3cc(=O)n4ncc(-c5nc(C)cs5)c4[nH]3)ccc21 [Example 25, 5-(1-ethyl-1H-indazol-5-yl)-3-(4-methyl-1,3-thiazol-2-yl)-4H,7H-pyrazolo[1,5-a]pyrimidin-7-one]",≤ 10
11,"CCn1ncc2cc(-c3cc(=O)n4ncc(-c5nccs5)c4[nH]3)ccc21 [Example 26, 5-(1-ethyl-1H-indazol-5-yl)-3-(thiazol-2-yl)-4H,7H-pyrazolo[1,5-a]pyrimidin-7-one]",≤ 10
12,"CCNC(=O)Cc1cnn2c(=O)cc(-c3ccc(Cl)c(OC)c3)[nH]c12 [Example 80, 2-[5-(4-chloro-3-methoxyphenyl)-7-oxo-4H,7H-pyrazolo[1,5-a]pyrimidin-3-yl]-N-ethylacetamide]",≤ 10
13,"CCc1coc(-c2cnn3c(=O)cc(-c4ccc5c(cnn5CC)c4)[nH]c23)n1 [Example 28, 5-(1-ethyl-1H-indazol-5-yl)-3-(4-ethyloxazol-2-yl)pyrazolo[1,5-a]pyrimidin-7(4H)-one]",≤ 10
14,"CCn1ncc2cc(-c3cc(=O)n4nc(C)c(-c5ncco5)c4[nH]3)ccc21 [Example 29, 5-(1-ethyl-1H-indazol-5-yl)-2-methyl-3-(oxazol-2-yl)-4H,7H-pyrazolo[1,5-a]pyrimidin-7-one]",≤ 10
15,"Cc1csc(-c2cnn3c(=O)cc(-c4ccc(Cl)c(Cl)c4)[nH]c23)n1 [Example 101, 5-(3,4-dichlorophenyl)-3-(4-methylthiazol-2-yl)pyrazolo[1,5-a]pyrimidin-7(4H)-one]",≤ 10
16,"CCn1ncc2cc(-c3cc(=O)n4ncc(-c5nc6ccccc6s5)c4[nH]3)ccc21 [Example 40, 3-(benzo[d]thiazol-2-yl)-5-(1-ethyl-1H-indazol-5-yl)pyrazolo[1,5-a]pyrimidin-7(4H)-one]",≤ 10
17,"CCn1ncc2cc(-c3cc(=O)n4ncc(-c5ccnn5C)c4[nH]3)ccc21 [Example 53, 5-(1-ethyl-1H-indazol-5-yl)-3-(1-methyl-1H-pyrazol-5-yl)pyrazolo[1,5-a]pyrimidin-7(4H)-one]",≤ 10
18,"Cc1cnc(-c2cnn3c(=O)cc(-c4ccc(Cl)cc4)[nH]c23)o1 [Example 47, 5-(4-chlorophenyl)-3-(5-methyloxazol-2-yl)pyrazolo[1,5-a]pyrimidin-7(4H)-one]",≤ 10

# The remaining lines, values ahead:
row,IC50 [µM],Structure (SMILES)
1,≤ 10,"CCn1ncc2cc(-c3cc(=O)n4ncc(-c5ccn(C)n5)c4[nH]3)ccc21 [Example 32, 5-(1-ethyl-1H-indazol-5-yl)-3-(1-methyl-1H-pyrazol-3-yl)-4H,7H-pyrazolo[1,5-a]pyrimidin-7-one]"
2,≤ 10,"Cc1cnc(-c2cnn3c(=O)cc(-c4ccc5c(cnn5C)c4)[nH]c23)o1 [Example 107, 5-(1-Methyl-1H-indazol-5-yl)-3-(5-methyloxazol-2-yl)pyrazolo[1,5-a]pyrimidin-7(4H)-one]"
3,≤ 10,"Cc1noc2cc(-c3cc(=O)n4ncc(C(N)=O)c4[nH]3)ccc12 [Example 122, 5-(3-methylbenzo[d]isoxazol-6-yl)-7-oxo-4,7-dihydropyrazolo[1,5-a]pyrimidine-3-carboxamide]"
4,≤ 10,"Cc1noc(-c2cnn3c(=O)cc(-c4ccc(Cl)c(OCC(F)(F)F)c4)[nH]c23)n1 [Example 92, 5-[4-chloro-3-(2,2,2-trifluoroethoxy)phenyl]-3-(3-methyl-1,2,4-oxadiazol-5-yl)-4H,7H-pyrazolo[1,5-a]pyrimidin-7-one]"
5,≤ 10,"Cc1cnc(-c2cnn3c(=O)cc(-c4ccc(Cl)cc4)[nH]c23)s1 [Example 106, 5-(4-Chlorophenyl)-3-(5-methylthiazol-2-yl)pyrazolo[1,5-a]pyrimidin-7(4H)-one]"
6,≤ 10,"O=c1cc(-c2ccc(Cl)c(Cl)c2)[nH]c2c(-c3noc4ccccc34)cnn12 [Example 60, 3-(benzo[d]isoxazol-3-yl)-5-(3,4-dichlorophenyl)pyrazolo[1,5-a]pyrimidin-7(4H)-one]"
7,≤ 10,"CCOc1cc(-c2cc(=O)n3ncc(-c4ncc(C)o4)c3[nH]2)ccc1Cl [Example 46, 5-(4-chloro-3-ethoxyphenyl)-3-(5-methyloxazol-2-yl)pyrazolo[1,5-a]pyrimidin-7(4H)-one]"
8,≤ 10,"CNC(=O)Cc1cnn2c(=O)cc(-c3ccc(Cl)c(OC)c3)[nH]c12 [Example 81, 2-(5-(4-chloro-3-methoxyphenyl)-7-oxo-4,7-dihydropyrazolo[1,5-a]pyrimidin-3-yl)-N-methylacetamide]"
9,≤ 10,"COc1nn2c(=O)cc(-c3ccc(Cl)cc3)[nH]c2c1-c1nc(C)no1 [Example 10, 5-(4-chlorophenyl)-2-methoxy-3-(3-methyl-1,2,4-oxadiazol-5-yl)-4H,7H-pyrazolo[1,5-a]pyrimidin-7-one]"
10,≤ 10,"COc1cc(-c2cc(=O)n3ncc(-c4ncc(-c5ccccc5)o4)c3[nH]2)ccc1Cl [Example 63, 5-(4-chloro-3-methoxyphenyl)-3-(5-phenyloxazol-2-yl)-4H,7H-pyrazolo[1,5-a]pyrimidin-7-one]"
